Values quoted from earlier work in patent US20140243422A1, “METHODS OF TREATING BEHAVIORAL AND PSYCHIATRIC DISORDERS” (ELAN PHARMACEUTICALS, INC., priority 2011, published 2014).

System: brain myo-inositol levels
Settings: bipolar patients, therapeutic doses, within a few days; cited from earlier work

O=C([O-])[O-].[Li+].[Li+] [Lithium, lithium carbonate]
reduction of brain myo-inositol levels: ~30%
